For this assay, the target named is T1, trypanothione synthetase-amidase (TRYS) (Trypanosoma brucei, UniProt Q586P2).
T1 sequence (Q586P2 1-627): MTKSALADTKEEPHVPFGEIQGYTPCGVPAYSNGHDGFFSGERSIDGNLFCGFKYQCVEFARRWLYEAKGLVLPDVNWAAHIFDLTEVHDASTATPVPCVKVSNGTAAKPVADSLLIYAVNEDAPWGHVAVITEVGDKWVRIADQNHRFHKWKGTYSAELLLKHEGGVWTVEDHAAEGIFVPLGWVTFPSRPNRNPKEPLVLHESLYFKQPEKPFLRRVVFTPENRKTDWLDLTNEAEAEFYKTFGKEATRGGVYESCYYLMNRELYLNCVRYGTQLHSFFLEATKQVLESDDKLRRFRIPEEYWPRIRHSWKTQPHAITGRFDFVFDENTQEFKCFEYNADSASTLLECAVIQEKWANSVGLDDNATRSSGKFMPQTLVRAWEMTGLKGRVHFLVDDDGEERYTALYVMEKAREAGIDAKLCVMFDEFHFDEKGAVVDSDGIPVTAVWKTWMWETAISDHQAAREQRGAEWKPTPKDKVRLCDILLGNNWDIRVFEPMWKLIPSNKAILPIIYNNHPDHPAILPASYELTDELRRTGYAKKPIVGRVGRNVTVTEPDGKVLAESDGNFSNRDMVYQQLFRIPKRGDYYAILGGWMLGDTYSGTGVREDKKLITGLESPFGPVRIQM
In words: inhibition of recombinant TRYS. It counts as biochemical.

pIC50: −log10 of the molar value.

By pIC50 is commonly meant the IC50 on a negative log10 scale, so that one unit is a factor of ten. As to `CN(C)CCCNC(=O)Cn1nc(-c2cccc(F)c2)c2ccccc21` [DDU 86439, N-(3-(dimethylamino)propyl)-2-(3-(3-fluorophenyl)-1H-indazol-1-yl)acetamide], the pIC50 is 7.35.

The record behind these values is article PMC2784880 (2009).
